Measurements from patent US20100120690A1, “Polypeptides Having Antimicrobial Activity and Polynucleotides Encoding Same” (Novozymes Adenium Biotech A/S, priority 2005, published 2010).

Columns and labels:
[1] = tested on: panel of 6 different strains of Staphylococcus aureus; assay: Average MIC, NCCLS/CLSI guidelines using caMHB (Example 6); assay type: cell-based; conditions: average over 6 S. aureus strains, duplicate; MIC above 32 counted as 64; read after 18-24 hours at 37° C.
Description: A large number of antimicrobial peptides of the invention were tested against a panel of 6 different strains of Staphylococcus aureus listed below:
Staphylococcus aureus, ATCC29213, MSSA, NCCLS reference strain; Staphylococcus aureus, ATCC25923, MSSA, NCCLS reference strain; Staphylococcus aureus, ATCC29737, MSSA; Staphylococcus aureus, E33235, MSSA; Staphylococcus aureus, 698-01, MRSA ST5, Str, Kan, Oxa; Staphylococcus aureus, 566-03, MRSA ST80, Oxa, Tet, Fus, Kan.
The staphylococci were exposed to the following peptide concentrations: 32; 16; 8; 4; 2; 1; 0.5; 0.25; 0.13; […]; and 0.03 microgram/mL. All peptides were purified, HPLC quantified and the concentrated peptides (>160 micrograms/mL) were diluted to 160 micrograms/mL in peptide dilution buffer (0.1% BSA, 0.01% Acetic Acid).
The MIC determination was done essentially as described by NCCLS/CLSI guidelines using caMHB. The MICs were read after 18-24 hours of 37° C. incubations and recorded along with the CFU in the table below.
A total number of 95 antimicrobial peptides of the invention were evaluated in duplicate against the 6 bacterial strains described above.
In the majority of the double determinations (93%), the MIC varied <2 fold. An average MIC is tabulated below. If the MIC was above 32 micrograms/mL, a value of 64 was used to calculate the average.

[2] = tested on: Staphylococcus carnosus ATCC51365; assay: Yeast screening assay: radial diffusion assay of yeast supernatants; assay type: cell-based; design: key: An activity of 3 is better than Plectasin; An activity of 2 corresponds to the activity of Plectasin; 1 is worse than Plectasin; conditions: yeast supernatant, clearing zone in radial diffusion assay
Summary of the method: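 Activity scores (1 worse, 2 equal, 3 better than wild-type plectasin) come from the size of the radial-diffusion clearing zone against S. carnosus at 5×10^5 cfu/mL. Test samples were culture supernatants of yeast transformants induced with galactose for 3 days at 30 °C, and plates were developed at 37 °C with MTT.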

| Substance | Average MIC [1] [micrograms/mL] | Activity (antimicrobial activity relative to the activity of plectasin) [2] |
| --- | --- | --- |
| GFGCNGPWDEDDTQCHNHCKSIKGYKGGYCAKGGFVCKCY [Mutation M13T] | 26 | 2 |
| GFGCNGPWVEDDMQCHNHCKSIKGYKGGYCAKGGFVCKCY [Mutation D9V] | 30 | 3 |
| GFGCNGPWDEDDMVCHNHCKSIKGYRGGYCAKGGFVCKCY [Q14V + K26R] | 12 | 3 |
| GFGCNGPWDEDDMQCHNHCKSIKGYKGGYCNKGGFVCKCY [Mutation A31N] | 9 | 3 |
| GFGCNGPWGEDDMQCHNHCKSIKGYKGGYCAKGGFVCKCY [Mutation D9G] | 21 | 3 |
| N17T: antimicrobial peptide of the invention, Plectasin variant (GFGCNGPWDEDDMQCHTHCKSIKGYKGGYCAKGGFVCKCY) [Mutation N17T] | 21 |  |
| GFGCNGPWDEDDMQCHSHCKSIRGYKGGYCAKGGFVCKCY [N17S + K23R] | 14 | 2 |
| GFGCAGPWDEDDMQCHNHCKSIKGYKGGYCAKGGFVCKCY [Mutation N5A] | 29 | 3 |
| S21A: antimicrobial peptide of the invention, Plectasin variant (GFGCNGPWDEDDMQCHNHCKAIKGYKGGYCAKGGFVCKCY) [Mutation S21A] | 17 |  |
| N17F: antimicrobial peptide of the invention, Plectasin variant (GFGCNGPWDEDDMQCHFHCKSIKGYKGGYCAKGGFVCKCY) [Mutation N17F] | 12 |  |
| N5D + D9S + Q14R: antimicrobial peptide of the invention, Plectasin variant (GFGCDGPWSEDDMRCHNHCKSIKGYKGGYCAKGGFVCKCY) | 16 |  |
| GFGCNGPWDEDDSQCHNHCKSIKGYKGGYCAKGGFVCKCY [Mutation M13S] | 24 | 3 |
| M13R + Q14K + K26R: antimicrobial peptide of the invention, Plectasin variant (GFGCNGPWDEDDRKCHNHCKSIKGYRGGYCAKGGFVCKCY) | 5 |  |
| GFGCNGPWDEDDMSCHNHCKSIKGYKGGYCAKGGFVCKCY [Mutation Q14S] | 21 | 3 |
| K26C + Y40YRCG: antimicrobial peptide of the invention, Plectasin variant (GFGCNGPWDEDDMQCHNHCKSIKGYCGGYCAKGGFVCKCYRCG) | 11 |  |
| S21V: antimicrobial peptide of the invention, Plectasin variant (GFGCNGPWDEDDMQCHNHCKVIKGYKGGYCAKGGFVCKCY) [Mutation S21V] | 26 |  |
| M13A + Q14K + K26R: antimicrobial peptide of the invention, Plectasin variant (GFGCNGPWDEDDAKCHNHCKSIKGYRGGYCAKGGFVCKCY) | 9 |  |
| GFGCNGPWDEDDMGCHNHCKSIKGYKGGYCAKGGFVCKCY [Mutation Q14G] | 18 | 3 |

| Substance | Average MIC [1] [micrograms/mL] | Activity (antimicrobial activity relative to the activity of plectasin) [2] |
| --- | --- | --- |
| N17K: antimicrobial peptide of the invention, Plectasin variant (GFGCNGPWDEDDMQCHKHCKSIKGYKGGYCAKGGFVCKCY) [Mutation N17K] | 11 |  |
| N5S + M13V + N17A: antimicrobial peptide of the invention, Plectasin variant (GFGCSGPWDEDDVQCHAHCKSIKGYKGGYCAKGGFVCKCY) | 18 |  |
| GFGCSGPWDEDDMQCHNHCKSIKGYKGGYCAKGGFVCKCY [Mutation N5S] | 24 | 3 |
| S21N: antimicrobial peptide of the invention, Plectasin variant (GFGCNGPWDEDDMQCHNHCKNIKGYKGGYCAKGGFVCKCY) [Mutation S21N] | 11 |  |
| N5K + M13L: antimicrobial peptide of the invention, Plectasin variant (GFGCKGPWDEDDLQCHNHCKSIKGYKGGYCAKGGFVCKCY) | 9 |  |
| N17K + K32R: antimicrobial peptide of the invention, Plectasin variant (GFGCNGPWDEDDMQCHKHCKSIKGYKGGYCARGGFVCKCY) | 7 |  |
| GFGCGGPWDEDDMQCHNHCKSIKGYKGGYCAKGGFVCKCY [Mutation N5G] | 24 | 3 |
| N17S: antimicrobial peptide of the invention, Plectasin variant (GFGCNGPWDEDDMQCHSHCKSIKGYKGGYCAKGGFVCKCY) [Mutation N17S] | 14 |  |
| GFGCNGPWKEDDMQCHNHCKSIKGYKGGYCAKGGFVCKCY [Mutation D9K] | 7 | 3 |
| GFGCNGPWDEGDMQCHNHCKSVKGYKGGYCAKGGFVCKCY [D11G + I22V] | 17 | 3 |
| N17A: antimicrobial peptide of the invention, Plectasin variant (GFGCNGPWDEDDMQCHAHCKSIKGYKGGYCAKGGFVCKCY) [Mutation N17A] | 15 |  |
| GFGCNGPWDEDDRQCHNHCKSIKGYKGGYCAKGGFVCKCY [Mutation M13R] | 9 | 3 |
| N5H + M13E + N17E: antimicrobial peptide of the invention, Plectasin variant (GFGCHGPWDEDDEQCHEHCKSIKGYKGGYCAKGGFVCKCY) | 12 |  |
| N5S + M13V + N17T: antimicrobial peptide of the invention, Plectasin variant (GFGCSGPWDEDDVQCHTHCKSIKGYKGGYCAKGGFVCKCY) | 16 |  |
| N5G + D9A + Q14S + K23T + A31T: antimicrobial peptide of the invention, Plectasin variant (GFGCGGPWAEDDMSCHNHCKSITGYKGGYCTKGGFVCKCY) | 14 |  |
| GFGCNGPWDEDDMQCHNHCKSIKGYKGGYCAKGGFLCKCY [Mutation V36L] | 26 | 3 |
| M13S + Q14K + K26R: antimicrobial peptide of the invention, Plectasin variant (GFGCNGPWDEDDSKCHNHCKSIKGYRGGYCAKGGFVCKCY; Synthetic antimicrobial polypeptide) | 15 |  |
